According to patent US7772267B2, “Bicyclic modulators of androgen receptor function” (Bristol-Myers Squibb Company, priority 2002, dated 2010):

What was measured:
AR = molecular target: T1, AR (Rattus norvegicus, UniProt P15207)
T1 sequence (P15207 1-902): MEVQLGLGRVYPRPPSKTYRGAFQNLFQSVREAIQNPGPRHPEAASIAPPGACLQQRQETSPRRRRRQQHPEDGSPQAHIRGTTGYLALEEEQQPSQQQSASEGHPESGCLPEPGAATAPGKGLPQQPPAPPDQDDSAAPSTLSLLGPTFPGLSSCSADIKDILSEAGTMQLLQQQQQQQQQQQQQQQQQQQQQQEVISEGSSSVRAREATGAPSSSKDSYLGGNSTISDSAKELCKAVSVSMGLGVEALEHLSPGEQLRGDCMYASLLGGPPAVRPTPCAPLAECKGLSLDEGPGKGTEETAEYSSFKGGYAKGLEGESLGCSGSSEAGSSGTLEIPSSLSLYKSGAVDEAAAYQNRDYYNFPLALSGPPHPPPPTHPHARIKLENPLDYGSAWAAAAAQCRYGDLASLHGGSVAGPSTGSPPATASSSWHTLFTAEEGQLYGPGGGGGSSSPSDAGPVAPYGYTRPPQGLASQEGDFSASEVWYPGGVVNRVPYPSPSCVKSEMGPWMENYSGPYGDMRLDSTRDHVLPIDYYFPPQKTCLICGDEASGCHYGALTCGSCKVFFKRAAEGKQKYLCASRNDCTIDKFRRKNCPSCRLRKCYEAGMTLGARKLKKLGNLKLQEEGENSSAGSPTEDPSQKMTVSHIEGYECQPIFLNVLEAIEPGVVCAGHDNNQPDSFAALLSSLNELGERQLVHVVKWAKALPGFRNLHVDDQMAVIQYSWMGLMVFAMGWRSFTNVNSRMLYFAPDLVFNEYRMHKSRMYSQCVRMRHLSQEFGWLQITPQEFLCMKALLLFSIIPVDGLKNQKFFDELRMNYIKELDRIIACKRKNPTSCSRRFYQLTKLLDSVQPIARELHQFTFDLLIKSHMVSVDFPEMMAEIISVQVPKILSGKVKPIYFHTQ
Description: The activity of compounds of the present invention as AR agonists was investigated in an immature male rat model, a recognized test of anabolic effects in muscle and sustaining effects in sex organs for a given compound, as described in L. G. Hershberger et al., Proc. Soc. […] Biol. Med., 83, 175 (1953); B. L. Beyler et al, “Methods for evaluating anabolic and catabolic agents in laboratory animals”, J. Amer. Med. Women's Ass., 23, 708 (1968); H. Fukuda et al., “Investigations of the levator ani muscle as an anabolic steroid assay”, Nago Dai. Yak. Ken. Nem. 14, 84 (1966) the disclosures of which are herein incorporated by reference.
The basis of this assay lies in the well-defined action of androgenic agents on the maintenance and growth of muscle tissues and sexual accessory organs in animals and man. […] J. Anat. […] I. Quantitative data” Boll.-Soc. Ital. Biol. Sper. […] II. Electron-microscopic observations” Boll.-Soc. Ital. Biol. Sper. 42, 1600 (1966); A. Boris et al., Steroids 15, 61 (1970). As described above, the effects of androgens on maintenance of male sexual accessory organs, such as the prostate and seminal vesicles, is well described. Castration results in rapid involution and atrophy of the prostate and seminal vesicles. This effect can be reversed by exogenous addition of androgens. […]

[1] = test system: endogenous glucocorticoid receptor (A549 cells); assay: In vitro assay to measure GR-induced AP-1 transrepression (luciferase reporter in A549 cells); type: cell-based; details: at a concentration of ≦10 µM; typical value for the positive control
Method: The AP-1 assay is a cell-based luciferase reporter assay. A549 cells, which contain endogenous glucocorticoid receptor, were stably transfected with an AP-1 DNA binding site attached to the luciferase gene. Cells are then grown in RPMI+10% fetal calf serum (charcoal-treated)+Penicillin/Streptomycin with 0.5 mg/mL geneticin. Cells are plated the day before the assay at approximately 40000 cells/well. On assay day, the media is removed by aspiration and 20 μL assay buffer (RPMI without phenol red+10% FCS (charcoal-treated)+Pen/Strep) is added to each well. At this point either 20 μL assay buffer (control experiments), the compounds of the present invention (“test compounds”) (dissolved in DMSO and added at varying concentrations) or dexamethasome (100 nM in DMSO, positive control) are added to each well. The plates are then pre-incubated for 15 min at 37° C., followed by stimulation of the cells with 10 ng/mL PMA. The plates are then incubated for 7 h at 37° C. after which 40 μL luciferase substrate reagent is added to each well. Activity is measured by analysis in a luminometer as compared to control experiments treated with buffer or dexamethasome. […] The control, dexamethasone, at a concentration of ≦10 µM typically suppresses activity by 65%.

Molecule `Cc1c(N2C[C@@H]3[C@@H](O)CCN3C2=O)ccc(C#N)c1Cl` has a melting point of 148 to 149 °C.
For `CCC(=O)O[C@H]1CC[C@H]2[C@@H]3CCC4=CC(=O)CC[C@]4(C)[C@H]3CC[C@]12C` [TP, Testosterone Propionate], the “EC50 (increase in organ weight)” value (AR; castrated rats, organ weight increase) was ~0.03 mg and the “potency relative to free T” value (AR; higher potency than free T) was 10-30 fold.
With `C[C@@H]1C[C@H]2[C@@H]3CCC4=CC(=O)C=C[C@]4(C)[C@@]3(F)[C@@H](O)C[C@]2(C)[C@@]1(O)C(=O)CO` [dexamethasone] the “suppression of activity (% inhibition of the reporter system vs buffer control with 10 ng/mL PMA alone)” value [1] was 65%.
